Experimental data taken from patent US20120295907A1, “INSECTICIDAL COMPOUNDS” (SYNGENTA CROP PROTECTION, LLC, priority 2009, published 2012).

How the values were obtained:
Assay type in all cases: in vivo
Diabrotica balteata = Diabrotica balteata (Corn Root Worm) artificial diet MTP test; conditions: 120 h, 200 ppm (concentration in well 18 ppm), L2 larvae, 5 days, larval mortality, growth regulation
Spodoptera littoralis = Spodoptera littoralis (Egyptian Cotton Leafworm) cotton leaf disc spray test; conditions: foliar, 72 h, 200 ppm spray on cotton leaf discs, L1 larvae, mortality, feeding behavior, growth regulation 3 DAT
Plutella xylostella = Plutella xylostella (Diamond Back Moth) artificial diet MTP test; conditions: 144 h, 200 ppm (concentration in well 18 ppm), L2 larvae, 6 days, larval mortality, growth regulation
Heliothis virescens = Heliothis virescens (Tobacco Budworm) egg test on artificial diet; conditions: 96 h, 200 ppm (concentration in well 18 ppm), eggs 0-24 h old on artificial diet, 4 days, egg mortality, larval mortality, growth regulation

Measured: pest or weed control at 200 ppm

COc1c(NC(=O)c2ncc(Br)cn2)cccc1C(=O)Nc1c(Cl)cc(C(F)(C(F)(F)F)C(F)(F)C(F)(F)F)cc1Br (centres unmarked) [B187]
≥ 80%: Diabrotica balteata | Spodoptera littoralis | Plutella xylostella

COc1c(NC(=O)c2ccc(Cl)c(Cl)c2)cccc1C(=O)Nc1c(C)cc(C(F)(C(F)(F)F)C(F)(F)C(F)(F)F)cc1C (centres unmarked) [F17]
≥ 80%: all assays above

COc1c(NC(=O)c2ccc(C(F)(F)F)cc2SC)cccc1C(=O)Nc1c(Cl)cc(C(F)(C(F)(F)F)C(F)(F)C(F)(F)F)cc1Br (centres unmarked) [B125]
≥ 80%: Diabrotica balteata | Heliothis virescens | Plutella xylostella

COc1c(NC(=O)c2cnccn2)cccc1C(=O)Nc1c(Cl)cc(C(F)(C(F)(F)F)C(F)(F)C(F)(F)F)cc1Br (centres unmarked) [B56]
≥ 80%: all assays above

COc1c(NC(=O)c2cn(C)nc2C#N)cccc1C(=O)Nc1c(Cl)cc(C(F)(C(F)(F)F)C(F)(F)C(F)(F)F)cc1Br (centres unmarked) [B117]
≥ 80%: all assays above

COc1c(NC(=O)c2ccc(SC)cc2[N+](=O)[O-])cccc1C(=O)Nc1c(Cl)cc(C(F)(C(F)(F)F)C(F)(F)C(F)(F)F)cc1Br (centres unmarked) [B116]
≥ 80%: all assays above

CCc1cc(C(F)(C(F)(F)F)C(F)(F)F)cc(C)c1NC(=O)c1cccc(NC(=O)c2ccc(C#N)cc2C)c1OC [J4]
≥ 80%: Diabrotica balteata | Heliothis virescens | Plutella xylostella

COc1c(NC(=O)c2cc(Cl)ccc2F)cccc1C(=O)Nc1c(Cl)cc(C(F)(C(F)(F)F)C(F)(F)F)cc1Cl [E8]
≥ 80%: all assays above

COc1c(NC(=O)c2ccc(F)cc2F)cccc1C(=O)Nc1c(C)cc(C(F)(C(F)(F)F)C(F)(F)C(F)(F)F)cc1C (centres unmarked) [F9]
≥ 80%: all assays above

COc1cccc(C(=O)Nc2cccc(C(=O)Nc3c(C)cc(C(F)(C(F)(F)F)C(F)(F)C(F)(F)F)cc3C)c2OC)c1 (centres unmarked) [F22]
≥ 80%: all assays above

COc1c(NC(=O)c2ncc(Cl)cc2Cl)cccc1C(=O)Nc1c(Cl)cc(C(F)(C(F)(F)F)C(F)(F)C(F)(F)F)cc1Br (centres unmarked) [B185]
≥ 80%: all assays above

COc1c(NC(=O)c2ccc([N+](=O)[O-])c(C)c2)cccc1C(=O)Nc1c(C)cc(C(F)(C(F)(F)F)C(F)(F)C(F)(F)F)cc1C (centres unmarked) [F23]
≥ 80%: all assays above

COc1c(NC(=O)c2cccc([N+](=O)[O-])c2Br)cccc1C(=O)Nc1c(Cl)cc(C(F)(C(F)(F)F)C(F)(F)C(F)(F)F)cc1Br (centres unmarked) [B85]
≥ 80%: all assays above

COc1c(NC(=O)c2cc(Cl)ccc2F)cccc1C(=O)Nc1c(Cl)cc(C(F)(C(F)(F)F)C(F)(F)C(F)(F)F)cc1Cl (centres unmarked) [C10]
≥ 80%: Diabrotica balteata | Heliothis virescens | Spodoptera littoralis

COc1c(NC(=O)c2cc(Cl)ccc2F)cccc1C(=O)Nc1c(C)cc(C(F)(C(F)(F)F)C(F)(F)C(F)(F)F)cc1C (centres unmarked) [F12]
≥ 80%: Diabrotica balteata | Heliothis virescens | Spodoptera littoralis

COc1c(NC(=O)c2cc(C)ccc2Cl)cccc1C(=O)Nc1c(Cl)cc(C(F)(C(F)(F)F)C(F)(F)C(F)(F)F)cc1Br (centres unmarked) [B72]
≥ 80%: all assays above

CCc1cc(C(F)(C(F)(F)F)C(F)(F)F)cc(C)c1NC(=O)c1cccc(NC(=O)c2ccc(C#N)cc2Cl)c1OC [J1]
≥ 80%: Diabrotica balteata | Plutella xylostella

COc1c(NC(=O)c2ccc(Cl)cc2)cccc1C(=O)Nc1c(C)cc(C(F)(C(F)(F)F)C(F)(F)C(F)(F)F)cc1C (centres unmarked) [F19]
≥ 80%: all assays above

COc1c(NC(=O)c2ccc([N+](=O)[O-])c(O)c2)cccc1C(=O)Nc1c(Cl)cc(C(F)(C(F)(F)F)C(F)(F)C(F)(F)F)cc1Br (centres unmarked) [B181]
≥ 80%: Diabrotica balteata

COc1c(NC(=O)c2cc(C)oc2C(F)(F)F)cccc1C(=O)Nc1c(Cl)cc(C(F)(C(F)(F)F)C(F)(F)C(F)(F)F)cc1Br (centres unmarked) [B144]
≥ 80%: all assays above

COc1c(NC(=O)c2ccc(C)c(Br)c2)cccc1C(=O)Nc1c(Cl)cc(C(F)(C(F)(F)F)C(F)(F)C(F)(F)F)cc1Br (centres unmarked) [B84]
≥ 80%: all assays above

CCc1cc(C(F)(C(F)(F)F)C(F)(F)F)cc(C)c1NC(=O)c1cccc(NC(=O)c2c(F)cc(F)cc2F)c1OC [J3]
≥ 80%: Diabrotica balteata | Heliothis virescens | Plutella xylostella

COc1c(NC(=O)c2cccc(F)c2F)cccc1C(=O)Nc1c(Cl)cc(C(F)(C(F)(F)F)C(F)(F)C(F)(F)F)cc1Br (centres unmarked) [B22]
≥ 80%: all assays above

CCc1cc(C(F)(C(F)(F)F)C(F)(F)C(F)(F)F)cc(C)c1NC(=O)c1cccc(NC(=O)c2ccc(F)cc2)c1OC (centres unmarked) [A1, N-[2-ethyl-4-(1,2,2,3,3,3-hexafluoro-1-trifluoromethylpropyl)-6-methylphenyl]-3-(4-fluorobenzoylamino)-2-methoxybenzamide]
≥ 80%: all assays above

COc1cccc(F)c1C(=O)Nc1cccc(C(=O)Nc2c(Cl)cc(C(F)(C(F)(F)F)C(F)(F)C(F)(F)F)cc2Br)c1OC (centres unmarked) [B166]
≥ 80%: all assays above

COc1c(NC(=O)c2ccc(-n3cccc3)cc2)cccc1C(=O)Nc1c(Cl)cc(C(F)(C(F)(F)F)C(F)(F)C(F)(F)F)cc1Br (centres unmarked) [B30]
≥ 80%: Diabrotica balteata | Heliothis virescens | Spodoptera littoralis

COc1c(NC(=O)c2cnccc2C(F)(F)F)cccc1C(=O)Nc1c(Cl)cc(C(F)(C(F)(F)F)C(F)(F)C(F)(F)F)cc1Br (centres unmarked) [B126]
≥ 80%: all assays above

COc1c(NC(=O)c2cc([N+](=O)[O-])cc([N+](=O)[O-])c2C)cccc1C(=O)Nc1c(Cl)cc(C(F)(C(F)(F)F)C(F)(F)C(F)(F)F)cc1Br (centres unmarked) [B86]
≥ 80%: all assays above

COCc1cc(C(F)(C(F)(F)F)C(F)(F)C(F)(F)F)cc(Cl)c1NC(=O)c1cccc(NC(=O)c2c(F)cc(F)cc2F)c1OC (centres unmarked) [H2]
≥ 80%: Diabrotica balteata | Heliothis virescens | Plutella xylostella

COc1c(NC(=O)c2cc(C)n(C)n2)cccc1C(=O)Nc1c(Cl)cc(C(F)(C(F)(F)F)C(F)(F)C(F)(F)F)cc1Br (centres unmarked) [B100]
≥ 80%: all assays above

COCc1cc(C(F)(C(F)(F)F)C(F)(F)C(F)(F)F)cc(Br)c1NC(=O)c1cccc(NC(=O)c2ccc(C#N)cc2C)c1OC (centres unmarked) [I1]
≥ 80%: Diabrotica balteata | Heliothis virescens | Plutella xylostella
